Results published in PubChem BioAssay (NCI).
Several values for one entry are separate records, joined by “and”; a condition that tells them apart may be missing. Equal entries are not always repeated.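 Tested at 5 concentrations; 48 h exposure; 96-well plates; endpoints linearly interpolated, else capped at highest concentration. GI50: concentration for 50% inhibition of growth. Definition used: TGI = concentration required for complete inhibition of growth.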

Experiments:
Assay in all cases: inhibition of tumour cell growth, NCI panel, 48 h
[1] = system: A549 NSCLC
[2] = system: CAKI-1 renal
[3] = system: HCT-116 colon
[4] = system: OVCAR-3 ovarian
[5] = system: OVCAR-4 ovarian
[6] = system: OVCAR-5 ovarian
[7] = system: SK-MEL-5 melanoma
[8] = system: SK-OV-3 ovarian
[9] = system: SN12C renal
[10] = system: K-562 leukemia

Structure (SMILES)	GI50 [1]	TGI [1]	GI50 [2]	TGI [2]	GI50 [3]	TGI [3]	GI50 [4]	TGI [4]	GI50 [5]	TGI [5]	GI50 [6]	TGI [6]	GI50 [7]	TGI [7]	GI50 [8]	TGI [8]	GI50 [9]	TGI [9]	GI50 [10]	TGI [10]
CCC(c1cccc(O)c1)C(CC)c1cccc(O)c1 (stereo unspecified)	8.58 µM	24.2 µM	11.9 µM	33 µM	3.66 µM	14.5 µM	6.2 µM	19 µM	1.21 µM	14.3 µM	12 µM	24.3 µM	1.41 µM	3.91 µM	2.76 µM	11.1 µM	5.46 µM	19.4 µM	–	–
CN[C@@H]1C[C@H]2O[C@@](C)([C@@H]1OC)n1c3ccccc3c3c4c(c5c6ccccc6n2c5c31)C(=O)N[C@@H]4O	0.0328 µM	0.3 µM and 2.87 µM	–	0.0229 µM	–	2.42 µM	–	0.3 µM and 0.722 µM	0.0286 µM	–	0.0226 µM	0.298 µM and 0.24 µM	–	0.766 µM	0.0467 µM	0.187 µM and 0.28 µM	–	6.77 µM	0.162 µM	–
CC(=O)O[C@@H]1C2C(=O)OC(=O)C2C2CCC[C@]23O[C@H]13 (stereo partly specified)	–	> 100 µM	–	> 100 µM	–	> 100 µM	–	> 100 µM	–	> 100 µM	–	–	–	> 100 µM	–	> 100 µM	–	> 100 µM	–	> 100 µM
COc1cc(Br)c(C=Nc2cccc3ccc(OS(=O)(=O)c4cccc([N+](=O)[O-])c4)cc23)cc1OC	–	> 100 µM	–	> 100 µM	–	> 100 µM	–	> 100 µM	–	> 100 µM	–	> 100 µM	–	> 100 µM	–	> 100 µM	–	> 100 µM	–	> 100 µM
COc1ccc2c(c1)[n+]([O-])c(/C(C)=N/NC(=O)CC#N)c[n+]2[O-]	–	> 100 µM	–	> 100 µM	–	> 100 µM	–	> 100 µM	–	> 100 µM	–	> 100 µM	–	> 100 µM	–	> 100 µM	–	> 100 µM	–	> 100 µM
Oc1ccccc1-c1nc2c3ccccc3c3ccccc3c2[nH]1	6.08 µM	17.9 µM	1.67 µM	9.44 µM	10.5 µM	22.3 µM	11.1 µM	23.1 µM	12.7 µM	25.3 µM	15 µM	28.3 µM	12.1 µM	24.4 µM	8.68 µM	23.7 µM	10.7 µM	22.6 µM	–	–
Nc1ccc(S(=O)(=O)NCc2nccs2)cc1	–	94.3 µM	–	84.6 µM	–	40.8 µM	–	> 100 µM	–	95.7 µM	–	35.7 µM	–	29.6 µM	–	> 100 µM	–	37.8 µM	–	82.8 µM
c1cc(CNC2C3CCC(C3)C2c2c[nH]c3ccccc23)cc(CNC2C3CCC(C3)C2c2c[nH]c3ccccc23)c1 (stereo unspecified)	–	> 100 µM	–	–	–	–	–	–	–	3.24 µM and 3.34 µM	–	3.39 µM and 3.4 µM	–	3.29 µM	–	–	14.5 µM	31.5 µM	–	–
CNC(=S)N/N=C/c1ccc([N+](=O)[O-])s1	–	> 10 µM	–	> 10 µM	–	> 10 µM	–	7.24 µM	–	> 10 µM	–	> 10 µM	–	> 10 µM	–	> 10 µM	–	> 10 µM	–	> 10 µM
Cc1c2ccc(N(C)c3ccnc(Nc4cccc(S(N)(=O)=O)c4)n3)cc2nn1C	11.9 µM	> 25 µM	7.73 µM	24.7 µM	8.23 µM	> 25 µM	14.2 µM	> 25 µM	6.23 µM	> 25 µM	11.4 µM	> 25 µM	6.01 µM	> 17.1 µM	7.03 µM	20.6 µM	8.75 µM	> 25 µM	5.54 µM	> 25 µM
N.N.N.N.N.N.O=N[O-].[Br-].[Co+3].[Co+3].[OH3+].[OH3+]	> 100 µM	> 100 µM	–	–	–	–	–	–	–	–	> 100 µM	> 100 µM	–	–	> 100 µM	> 100 µM	> 100 µM	> 100 µM	> 100 µM	> 100 µM
S=c1nc(-c2cccnc2)[nH][nH]1	–	> 100 µM	–	> 1 µM	–	> 100 µM	–	–	–	> 1 µM	–	> 100 µM	–	> 100 µM	–	> 100 µM	–	> 100 µM	–	–
CCCCCCN(CCCCCC)CC(O)c1ccc2c3c(cccc13)CC2 (stereo unspecified)	10.4 µM	24 µM	1.96 µM	9.35 µM	1.68 µM	13.2 µM	8.96 µM	21.6 µM	10.3 µM	36.8 µM	10.8 µM	23.9 µM	4.74 µM	17.9 µM	14.1 µM	27.6 µM	7.04 µM	22 µM	–	–
CC1(C)C2CCC3(C2)CS(=O)(=O)N2OC231 (stereo unspecified)	–	> 100 µM	–	30.4 µM	–	> 100 µM	–	33.2 µM	–	–	–	71.9 µM	–	44.8 µM	–	> 100 µM	–	31.6 µM	–	54.6 µM
CCOC(=O)[C@H]1Nc2ccc(OC)cc2C2c3ccccc3CC21 (stereo partly specified)	–	> 100 µM	–	> 100 µM	–	> 100 µM	–	> 100 µM	–	> 100 µM	–	> 100 µM	–	> 100 µM	–	–	–	> 100 µM	–	> 100 µM
COC(=O)CCCCCN=Cc1c(O)c(O)c(C(C)C)c2cc(C)c(-c3c(C)cc4c(C(C)C)c(O)c(O)c(C=NCCCCCC(=O)OC)c4c3O)c(O)c12	1.35 µM	> 32.5 µM	6.17 µM	> 32.5 µM	1.23 µM	> 32.5 µM	1.27 µM	> 32.5 µM	1.05 µM	> 32.5 µM	–	–	4.46 µM	12.6 µM	1.51 µM	20 µM	1.3 µM	> 32.5 µM	1.07 µM	6.03 µM
CCOC(=O)C(=O)Nc1c(C(C)C)cccc1C(C)C	–	> 100 µM	–	> 100 µM	–	> 100 µM	–	> 100 µM	–	> 100 µM	–	–	–	> 100 µM	–	> 100 µM	–	> 100 µM	–	–
CN1C(=O)C(Cl)(C(Cl)(Cl)S(=O)(=O)O)C(=O)c2ccccc21 (stereo unspecified)	–	> 100 µM	–	> 100 µM	–	> 100 µM	–	> 100 µM	–	> 100 µM	–	–	–	> 100 µM	–	> 100 µM	–	> 100 µM	–	> 100 µM
O=C1NC2(CN3CCC2CC3)C(=O)N1CN(Cc1ccccc1)c1ccccc1 (stereo unspecified)	–	> 100 µM	–	> 100 µM	–	> 100 µM	–	> 100 µM	–	> 100 µM	–	> 100 µM	–	> 100 µM	–	> 100 µM	–	> 100 µM	–	–
Cc1nn(-c2ccccc2)c(-c2ccccc2[N+](=O)[O-])c1CC#N	–	> 100 µM	–	> 100 µM	–	–	–	> 100 µM	–	> 100 µM	–	> 100 µM	–	> 100 µM	–	> 100 µM	–	> 100 µM	–	> 100 µM
CCOC(=O)c1cc(/C=C/C(C)=C/C(=O)OC)n(C)c1C	–	> 100 µM	–	> 100 µM	–	–	–	> 100 µM	–	> 100 µM	–	> 100 µM	–	> 100 µM	–	> 100 µM	–	> 100 µM	–	> 100 µM
CN=C1SC(=Nc2ccc(N(C)C)cc2)N1C	–	> 100 µM	–	–	–	> 100 µM	–	> 100 µM	–	> 100 µM	–	> 100 µM	–	> 100 µM	–	67 µM	–	> 100 µM	–	> 100 µM
O=C([CH-]C(=O)C(F)(F)F)c1ccccc1.O=C([CH-]C(=O)C(F)(F)F)c1ccccc1.O=C([CH-]C(=O)C(F)(F)F)c1ccccc1.O=C([CH-]C(=O)C(F)(F)F)c1ccccc1.[Eu+3].c1ccncc1	25.6 µM	> 100 µM	–	–	7.53 µM	71 µM	–	–	7.62 µM	> 100 µM	41 µM	> 100 µM	11.2 µM	> 100 µM	–	–	3.74 µM	39.7 µM	4.66 µM	83 µM
C=C1C(=O)OC2/C=C(\C=O)CC/C=C(\C)C(O)C[C@@H]12 (stereo partly specified)	–	33.9 µM	–	–	–	3.46 µM	–	14.5 µM	–	27.5 µM	–	38.2 µM	–	22.4 µM	–	52.5 µM	–	14.5 µM	–	> 36.1 µM
Cc1cc2c(=O)c3ccccc3[nH]c2c(C(=O)O)c1C	–	> 100 µM	–	> 100 µM	–	> 100 µM	–	> 100 µM	–	> 100 µM	–	–	–	–	–	–	–	> 100 µM	–	> 100 µM
COc1ccc(/C=C2\C(=O)N(C(=O)Cc3ccccc3)N=C2C)cc1OC	–	> 100 µM	–	> 100 µM	–	> 100 µM	–	> 100 µM	–	> 100 µM	–	> 100 µM	–	–	–	–	–	> 100 µM	–	> 100 µM
O=c1[nH]c(=O)n(C2OC3COC2C3O)cc1F (stereo unspecified)	–	> 100 µM	–	> 100 µM	–	–	–	> 100 µM	–	> 100 µM	–	> 100 µM	–	> 100 µM	–	> 100 µM	–	> 100 µM	–	> 100 µM
BrC1(Br)C2/C=C\CCCCC21 (stereo unspecified)	–	> 100 µM	–	> 100 µM	–	> 100 µM	–	–	–	> 100 µM	–	> 100 µM	–	–	–	–	–	> 100 µM	–	> 100 µM
COC1CC(OC(=O)c2ccccc2)C(OC(=O)c2ccccc2)C(C)O1 (stereo unspecified)	–	> 100 µM	–	> 100 µM	–	> 100 µM	–	> 100 µM	–	–	–	> 100 µM	–	> 100 µM	–	> 100 µM	–	> 100 µM	–	> 100 µM
CCN1CSC(=S)N(CC)C1	–	> 100 µM	–	–	–	> 100 µM	–	> 100 µM	–	> 100 µM	–	> 100 µM	–	> 100 µM	–	> 100 µM	–	> 100 µM	–	> 100 µM
